# Test results as given in US9260416B2, “Heterocyclic autotaxin inhibitors and uses thereof” (AMIRA PHARMACEUTICALS, INC., priority 2011, dated 2016).
# Biological target: T1, autotaxin (Homo sapiens, UniProt Q13822)
# T1 construct: tissue Biocell Laboratories Inc 1121-00; host or cells: human serum (delipidated, dialyzed)
# Test: Human Serum Autotaxin Assay (choline release from LPC, TOOS detection)
# Format: biochemical
# Settings: dialyzed human serum; substrate LPC 14:0, 300 μM; 4 hours at 37° C.; choline release read at 555 nm
# Method: Human Serum Autotaxin Assay
# Inhibition of autotaxin activity is assayed in human serum by measuring the amount of choline released from the substrate, lysophosphatidylcholine (LPC). […] To assay for autotaxin inhibition, 20 μl of the dialyzed human serum is incubated with 2 μl test compound in DMSO and 73 μl lyso-PLD buffer (100 mM Tris pH 9, 500 mM NaCl, 5 mM MgCl2, 30 μM CoCl2, 0.05% Triton X-100) for 15 minutes at 37° C. […] 100 μl of a color mix which contains 4.5 mM 4-aminoantipyrine, 2.7 mM N-ethyl-N-(2-hydroxy-3-sulfopropyl)-m-toluidine, 21 units/ml Horseradish peroxidase and 3 units/ml choline oxidase in 50 mM Tris, pH 8, 4.5 mM MgCl2 is added and the incubation continued for 15 minutes at room temperature before reading the absorbance at 555 nm. The concentration of released choline in the sample is determined from a choline standard curve and is equal to the concentration of LPA produced.
row,IC50 [nM],Structure (SMILES)
1,> 1000,"Cc1[nH]c2cc(Cl)ccc2c1Sc1cncc(C(=O)O)c1 [Compound 1-1, 5-(6-Chloro-2-methyl-1H-indol-3-ylsulfanyl)-nicotinic acid]"
2,< 300,"CCCn1cc(-n2c(C)c(Sc3cccc(C(=O)O)n3)c3ccc(Cl)cc32)cn1 [Compound 1-11, 6-[6-Chloro-2-methyl-1-(1-propyl-1H-pyrazol-4-yl)-1H-indol-3-ylsulfanyl]-pyridine-2-carboxylic acid]"
3,< 300,"CCn1cc(-n2c(C)c(Sc3cc(C(=O)O)ccn3)c3ccc(Cl)cc32)cn1 [Compound 1-7, 2-[6-Chloro-1-(1-ethyl-1H-pyrazol-4-yl)-2-methyl-1H-indol-3-ylsulfanyl]-isonicotinic acid]"
4,< 300,"Cc1c(Sc2cccc(C(=O)O)n2)c2ccc(Cl)c(F)c2n1-c1cnn(C(C)C)c1 [Compound 1-13, 6-[6-Chloro-7-fluoro-1-(1-isopropyl-1H-pyrazol-4-yl)-2-methyl-1H-indol-3-ylsulfanyl]-pyridine-2-carboxylic acid]"
5,< 300,"CCn1cc(-n2c(C)c(Sc3cccc(C(=O)O)n3)c3ccc(Cl)cc32)cn1 [Compound 1-9, 6-[6-Chloro-1-(1-ethyl-1H-pyrazol-4-yl)-2-methyl-1H-indol-3-ylsulfanyl]-pyridine-2-carboxylic acid]"
6,< 300,"CCn1cc(-n2c(C)c(Sc3cccc(C(=O)O)n3)c3ccc(Cl)c(F)c32)cn1 [Compound 1-12, 6-[6-Chloro-1-(1-ethyl-1H-pyrazol-4-yl)-7-fluoro-2-methyl-1H-indol-3-ylsulfanyl]-pyridine-2-carboxylic acid]"
7,> 1000,"Cc1c(Sc2cc(C(=O)O)ccn2)c2ccc(Cl)cc2n1-c1cnn(C)c1 [Compound 1-6, 2-[6-Chloro-2-methyl-1-(1-methyl-1H-pyrazol-4-yl)-1H-indol-3-ylsulfanyl]-isonicotinic acid]"
8,< 300,"Cc1c(Sc2cncc(C(=O)O)c2)c2ccc(Cl)cc2n1-c1cnn(C(C)C)c1 [Compound 1-5, 5-[6-Chloro-1-(1-isopropyl-1H-pyrazol-4-yl)-2-methyl-1H-indol-3-ylsulfanyl]-nicotinic acid]"
9,< 300,"Cc1c(Sc2cccc(C(=O)O)n2)c2ccc(Cl)cc2n1-c1cnn(C)c1 [Compound 1-10, 6-[6-Chloro-2-methyl-1-(1-methyl-1H-pyrazol-4-yl)-1H-indol-3-ylsulfanyl]-pyridine-2-carboxylic acid]"
10,< 300,"CCn1cc(-n2c(C)c(Sc3cccc(CC(=O)O)n3)c3ccc(Cl)c(F)c32)cn1 [Compound 1-17, {6-[6-Chloro-1-(1-ethyl-1H-pyrazol-4-yl)-7-fluoro-2-methyl-1H-indol-3-ylsulfanyl]-pyridin-2-yl}-acetic acid]"
11,< 300,"CCCn1cc(-n2c(C)c(Sc3cccc(CC(=O)O)n3)c3ccc(Cl)c(F)c32)cn1 [Compound 1-18, {6-[6-Chloro-7-fluoro-2-methyl-1-(1-propyl-1H-pyrazol-4-yl)-1H-indol-3-ylsulfanyl]-pyridin-2-yl}-acetic acid]"
12,> 1000,"Cc1c(Sc2cncc(C(=O)O)c2)c2ccc(Cl)cc2n1Cc1ccccc1 [Compound 1-2, 5-(1-Benzyl-6-chloro-2-methyl-1H-indol-3-ylsulfanyl)-nicotinic acid]"
13,< 300,"CCn1cc(-n2c(C)c(Sc3cnn(CC(=O)O)c3)c3ccc(Cl)c(F)c32)cn1 [Compound 1-16, {4-[6-Chloro-1-(1-ethyl-1H-pyrazol-4-yl)-7-fluoro-2-methyl-1H-indol-3-ylsulfanyl]-pyrazol-1-yl}-acetic acid]"
14,300 to 1000,"Cc1c(Sc2cc(C(=O)O)ccn2)c2ccc(Cl)cc2n1-c1cnn(C(C)C)c1 [Compound 1-8, 2-[6-Chloro-1-(1-isopropyl-1H-pyrazol-4-yl)-2-methyl-1H-indol-3-ylsulfanyl]-isonicotinic acid]"
15,< 300,"Cc1c(Sc2cccc(C(=O)O)n2)c2ccc(Cl)cc2n1-c1cnn(C(C)C)c1 [Compound 1-14, 6-[6-Chloro-1-(1-isopropyl-1H-pyrazol-4-yl)-2-methyl-1H-indol-3-ylsulfanyl]-pyridine-2-carboxylic acid]"
16,< 300,"Cc1c(Sc2cncc(C(=O)O)c2)c2ccc(Cl)cc2n1-c1cnn(C)c1 [Compound 1-3, 5-[6-Chloro-2-methyl-1-(1-methyl-1H-pyrazol-4-yl)-1H-indol-3-ylsulfanyl]-nicotinic acid]"
17,< 300,"CCCn1cc(-n2c(C)c(Sc3cccc(C(=O)O)n3)c3ccc(Cl)c(F)c32)cn1 [Compound 1-15, 6-[6-Chloro-7-fluoro-2-methyl-1-(1-propyl-1H-pyrazol-4-yl)-1H-indol-3-ylsulfanyl]-pyridine-2-carboxylic acid]"
18,< 300,"CCn1cc(-n2c(C)c(Sc3cncc(C(=O)O)c3)c3ccc(Cl)cc32)cn1 [Compound 1-4, 5-[6-Chloro-1-(1-ethyl-1H-pyrazol-4-yl)-2-methyl-1H-indol-3-ylsulfanyl]-nicotinic acid]"
